What follows are compounds tested against T1, Peroxisome proliferator-activated receptor alpha (Homo sapiens) (UniProt Q07869) (assay: Agonist activity at yeast Gal4-fused human PPARalpha LBD transfected in human HepG2 cells assessed as transactivation by measuring beta-galactosidase activity incubated for 20 hrs by luminometry relative to control). Details: not given.
T1 sequence (whole entry): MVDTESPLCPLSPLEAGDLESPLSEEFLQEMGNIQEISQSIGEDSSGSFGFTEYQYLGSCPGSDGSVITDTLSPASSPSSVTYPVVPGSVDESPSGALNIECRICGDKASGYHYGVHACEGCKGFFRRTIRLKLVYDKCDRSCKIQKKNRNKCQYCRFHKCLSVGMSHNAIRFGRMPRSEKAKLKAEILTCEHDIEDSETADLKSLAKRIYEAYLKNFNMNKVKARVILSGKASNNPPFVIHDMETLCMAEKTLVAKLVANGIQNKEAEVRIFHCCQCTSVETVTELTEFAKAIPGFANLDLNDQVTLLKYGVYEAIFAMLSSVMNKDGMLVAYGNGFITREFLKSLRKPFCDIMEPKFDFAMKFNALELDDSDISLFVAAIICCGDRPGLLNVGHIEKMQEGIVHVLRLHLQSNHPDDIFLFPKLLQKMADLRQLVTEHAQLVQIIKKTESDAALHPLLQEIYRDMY
Type: cell-based

Structure (SMILES) | Emax [%]
O=C(NC(CSCc1ccc(C(=O)c2ccccc2)cc1)C(=O)O)c1ccccc1 (centres undefined) | 21

Same assay, conditions: filed as agonist

Structure (SMILES) | Emax [%]
CC(C)(C)OC(=O)NC(CSCc1ccc(C(=O)c2ccccc2)cc1)C(=O)O (centres undefined) | 83
O=C(NC(CSCc1ccc(-c2ccc(Cl)cc2)cc1)C(=O)O)OCc1ccccc1 (centres undefined) | 138
Cc1ccc(C(=O)c2ccc(CSCC(NC(=O)OC(C)(C)C)C(=O)O)cc2)cc1 (centres undefined) | 89
CC(C)(C)OC(=O)NC(COCc1ccc(Cc2ccccc2)cc1)C(=O)O (centres undefined) | 52
CC(C)(C)OC(=O)NC(COCc1ccc(C(=O)c2ccccc2)cc1)C(=O)O (centres undefined) | 49
CC(C)(C)OC(=O)NC(CSCc1ccc(/C=C/C(=O)c2ccccc2)cc1)C(=O)O (centres undefined) | 94
CC(SCc1ccccc1)C(NC(=O)c1ccccc1)C(=O)O (centres undefined) | 48
CC(C)(C)OC(=O)NC(CSCc1ccc(C(=O)c2ccc(Cl)cc2)cc1)C(=O)O (centres undefined) | 95
CC(C)(C)OC(=O)NC(CSCc1ccccc1)C(=O)O (centres undefined) | 118
CC(C)(C)OC(=O)NC(CSCc1ccc(-c2ccccc2)cc1)C(=O)O (centres undefined) | 108

Each compound was assayed against T2, Peroxisome proliferator-activated receptor gamma (Homo sapiens, UniProt P37231) (assay: Agonist activity at yeast Gal4-fused human PPARgamma transfected in human HepG2 cells assessed as transactivation by measuring beta-galactosidase activity incubated for 20 hrs by luminometry). Details: not given.
T2 sequence (P37231 whole entry): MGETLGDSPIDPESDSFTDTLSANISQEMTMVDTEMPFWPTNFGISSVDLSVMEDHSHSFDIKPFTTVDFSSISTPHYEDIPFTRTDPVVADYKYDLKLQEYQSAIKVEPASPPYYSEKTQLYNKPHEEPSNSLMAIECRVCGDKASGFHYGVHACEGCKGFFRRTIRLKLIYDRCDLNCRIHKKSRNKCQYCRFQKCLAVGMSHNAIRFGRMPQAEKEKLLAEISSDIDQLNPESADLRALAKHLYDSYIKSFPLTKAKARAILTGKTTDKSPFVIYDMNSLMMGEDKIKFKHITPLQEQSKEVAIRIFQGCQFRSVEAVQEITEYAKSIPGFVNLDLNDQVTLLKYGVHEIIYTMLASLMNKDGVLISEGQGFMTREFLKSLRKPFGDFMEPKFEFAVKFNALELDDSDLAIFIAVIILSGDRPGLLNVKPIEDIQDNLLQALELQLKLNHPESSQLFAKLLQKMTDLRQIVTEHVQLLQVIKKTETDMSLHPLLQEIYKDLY
Type: cell-based

Structure (SMILES) | EC50 [µM]
CC(C)(C)OC(=O)NC(CSCc1ccc(C(=O)c2ccccc2)cc1)C(=O)O (centres undefined) | 10.3
Cc1ccc(C(=O)c2ccc(CSCC(NC(=O)OC(C)(C)C)C(=O)O)cc2)cc1 (centres undefined) | 4.6
CC(C)(C)OC(=O)NC(COCc1ccc(C(=O)c2ccccc2)cc1)C(=O)O (centres undefined) | 20
CC(C)(C)OC(=O)NC(CSCc1ccc(/C=C/C(=O)c2ccccc2)cc1)C(=O)O (centres undefined) | 10.2
CC(C)(C)OC(=O)NC(CSCc1ccc(C(=O)c2ccc(Cl)cc2)cc1)C(=O)O (centres undefined) | 3.2
CC(C)(C)OC(=O)NC(CSCc1ccccc1)C(=O)O (centres undefined) | 25.7
CC(C)(C)OC(=O)NC(CSCc1ccc(-c2ccccc2)cc1)C(=O)O (centres undefined) | 3.9

These compounds were tested against T3, Peroxisome proliferator-activated receptor delta (Homo sapiens, UniProt Q03181) (assay: Agonist activity at yeast Gal4-fused human PPARdelta transfected in human HepG2 cells assessed as transactivation by measuring beta-galactosidase activity incubated for 20 hrs by luminometry). Details: not given.
T3 sequence (Q03181 whole entry): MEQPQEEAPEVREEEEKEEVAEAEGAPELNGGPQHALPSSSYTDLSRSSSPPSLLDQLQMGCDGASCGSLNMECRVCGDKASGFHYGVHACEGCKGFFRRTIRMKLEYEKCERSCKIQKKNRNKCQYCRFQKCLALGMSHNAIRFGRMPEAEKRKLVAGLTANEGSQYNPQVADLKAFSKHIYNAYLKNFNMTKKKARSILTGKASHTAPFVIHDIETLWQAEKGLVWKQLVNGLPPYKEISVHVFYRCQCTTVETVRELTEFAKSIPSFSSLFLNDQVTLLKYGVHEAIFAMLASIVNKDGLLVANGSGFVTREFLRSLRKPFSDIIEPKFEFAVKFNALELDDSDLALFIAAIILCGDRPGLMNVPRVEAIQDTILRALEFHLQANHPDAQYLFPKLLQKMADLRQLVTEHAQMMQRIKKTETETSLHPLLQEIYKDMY
Type: cell-based

Structure (SMILES) | EC50 [µM]
CC(C)(C)OC(=O)NC(CSCc1ccc(C(=O)c2ccccc2)cc1)C(=O)O (centres undefined) | 37.1

The compounds below were run against T4, Peroxisome proliferator-activated receptor alpha (Homo sapiens, UniProt Q07869) (assay: Agonist activity at yeast Gal4-fused human PPARalpha LBD transfected in human HepG2 cells assessed as transactivation by measuring beta-galactosidase activity incubated for 20 hrs by luminometry). Details: not given.
T4 sequence (Q07869 whole entry): T1 sequence (whole entry)
Type: cell-based

Structure (SMILES) | EC50 [µM]
CC(C)(C)OC(=O)NC(CSCc1ccc(C(=O)c2ccccc2)cc1)C(=O)O (centres undefined) | 1.6
O=C(NC(CSCc1ccc(-c2ccc(Cl)cc2)cc1)C(=O)O)OCc1ccccc1 (centres undefined) | 0.135
Cc1ccc(C(=O)c2ccc(CSCC(NC(=O)OC(C)(C)C)C(=O)O)cc2)cc1 (centres undefined) | 0.94
CC(C)(C)OC(=O)NC(COCc1ccc(Cc2ccccc2)cc1)C(=O)O (centres undefined) | 10
CC(C)(C)OC(=O)NC(COCc1ccc(C(=O)c2ccccc2)cc1)C(=O)O (centres undefined) | 12.1
CC(C)(C)OC(=O)NC(CSCc1ccc(/C=C/C(=O)c2ccccc2)cc1)C(=O)O (centres undefined) | 0.8
CC(SCc1ccccc1)C(NC(=O)c1ccccc1)C(=O)O (centres undefined) | 9.1
CC(C)(C)OC(=O)NC(CSCc1ccc(C(=O)c2ccc(Cl)cc2)cc1)C(=O)O (centres undefined) | 0.37
CC(C)(C)OC(=O)NC(CSCc1ccccc1)C(=O)O (centres undefined) | 1.45
CC(C)(C)OC(=O)NC(CSCc1ccc(-c2ccccc2)cc1)C(=O)O (centres undefined) | 0.71

Reference: ChEMBL document CHEMBL5154813 (Eur J Med Chem, 2022)
